From ChEMBL document CHEMBL5346934 (J Med Chem, 2023)
pEC50, pIC50: −log10 of the molar value.

What was measured:
[1] = tested on: Cowpox virus; assay: Antiviral activity against Cowpox virus infected in Vero cells measured after 4 days by colorimetric assay; type: functional, organism-based; conditions: 96 h
[2] = tested on: Cowpox virus; assay: Antiviral activity against Cowpox virus Grishak infected in African green monkey Vero cells measured after 4 days by colorimetric assay; type: functional, organism-based; conditions: 96 h
[3] = tested on: Vaccinia virus; assay: Antiviral activity against Vaccinia virus Copenhagen infected in African green monkey Vero cells measured after 4 days by colorimetric assay; type: functional, organism-based; conditions: Orthopoxvirus vaccinia, 96 h
[4] = tested on: Ectromelia virus; assay: Antiviral activity against ectromelia virus K-1 infected in Vero cells measured after 4 days by colorimetric assay; type: functional, organism-based; conditions: K-1, Vero, 96 h
[5] = tested on: Vaccinia virus; assay: Antiviral activity against Vaccinia virus infected in African green monkey Vero cells assessed as reduction virus induced cytopathic effect incubated for 24 hrs by MTT assay; type: functional, organism-based; conditions: Orthopoxvirus vaccinia
[6] = tested on: Vaccinia virus; assay: Antiviral activity against Vaccinia virus infected in African green monkey BSC-1 cells; type: functional, organism-based, Orthopoxvirus vaccinia
[7] = tested on: Vaccinia virus; assay: Antiviral activity against Vaccinia virus VG9 infected in African green monkey BSC-1 cells; type: functional, organism-based, Orthopoxvirus vaccinia
[8] = tested on: Vaccinia virus; assay: Antiviral activity against Vaccinia virus infected in African green monkey CV-1 cells assessed as reduction in virus-induced cytopathic effect incubated for 5 days by colorimetric analysis; type: functional, organism-based; conditions: Orthopoxvirus vaccinia, CV-1, 120 h
[9] = tested on: HEL; assay: Cytotoxicity against human HEL cells assessed as reduction in cell growth; type: functional
[10] = tested on: Vaccinia virus; assay: Antiviral activity against Vaccinia virus infected in human HEL cells; type: functional, organism-based; conditions: Orthopoxvirus vaccinia
[11] = tested on: Vaccinia virus; assay: Antiviral activity against Vaccinia virus Copenhagen infected in human HFF cells assessed as assessed as reduction in virus-induced cytopathic effect incubated for 7 days by microscopic analysis; type: functional, organism-based; conditions: Orthopoxvirus vaccinia, 168 h
[12] = tested on: Vaccinia virus; assay: Antiviral activity against Vaccinia virus IHD-J infected in BSC40 cells assessed as reduction in plaque formation measured after 72 hrs by crystal violet staining based analysis; type: functional, organism-based; conditions: Orthopoxvirus vaccinia, BSC-40, 72 h
[13] = Orthopoxvirus vaccinia, VG9, BSC-1

## Nc1cc(OC[C@H](CO)OCP(=O)(O)O)nc(N)n1
[1]
  pEC50: 4.34

## CC1(C)[C@@H]2CC=C(CNC(=O)C34CC5CC(CC(C5)C3)C4)[C@H]1C2
[2]
  pIC50: 5.33
[3]
  pIC50: 5.77
[4]
  pIC50: 5.57

## CCCCCCCCCCCCCCCCCCOCCOP(=O)(O)CO[C@H](CO)Cn1ccc(N)nc1=O
[5]
  pEC50: 6.70

## CC1(C)[C@@H]2CC[C@@]1(C)[C@@H](NC(=O)c1ccc(C(F)(F)F)cc1)C2
[2]
  pIC50: 5.21
[3]
  pIC50: 6.22
[4]
  pIC50: 5.16

## Cc1cc(C2CCCCC2)n(O)c(=O)c1 [CICLOPIROX]
[6]; Orthopoxvirus vaccinia, BSC-1
  pEC50: 5.24
[7]; [13]
  pEC50: 5.16

## C[C@H]1O[C@@H](O[C@H]2[C@@H](O)C[C@H](O[C@H]3[C@@H](O)C[C@H](O[C@H]4CC[C@@]5(C)[C@H](CC[C@@H]6[C@@H]5C[C@@H](O)[C@]5(C)[C@@H](C7=CC(=O)OC7)CC[C@]65O)C4)O[C@@H]3C)O[C@@H]2C)C[C@H](O)[C@@H]1O [DIGOXIN]
[8]
  pEC50: 6.60

## O=C1N(Nc2ccc(Br)cc2)C(=O)C23C4C=CC5C4C4C(C=CC42)C153
[9]
  CC50: > 100000 nM
[10]
  pIC50: 5.14

## O=C1N(Nc2ccc(C(F)(F)F)cc2)C(=O)C23C4C=CC5C4C4C(C=CC42)C153
[9]
  CC50: > 100000 nM
[10]
  pIC50: 5.92

## Fc1ccc(Nc2c(-c3ccccn3)nc3ccc(Cl)cn23)cc1
[11]
  pEC50: 5.19

## O=C1N(Nc2ccc(Cl)c(Br)c2)C(=O)C23C4C=CC5C4C4C(C=CC42)C153
[9]
  CC50: > 100000 nM
[10]
  pIC50: 6.80

## CCCCCCCCCCCCCCCCCCOCCOP1(=O)COCC(Cn2ccc(N)nc2=O)O1 (configuration not stated)
[5]
  pEC50: 5.96

## CC1(C)/C(=N\NC(=O)c2ccc(Cl)cc2)[C@]2(C)CC[C@H]1C2
[2]
  pIC50: 5.31
[3]
  pIC50: 6.05
[4]
  pIC50: 5.10

## O=C1N(Nc2ccc([N+](=O)[O-])cc2)C(=O)C23C4C=CC5C4C4C(C=CC42)C153
[9]
  CC50: > 100000 nM
[10]
  pIC50: 5.52

## COc1c(C)c2c(c(O)c1C/C=C(\C)CCC(=O)OCCN1CCOCC1)C(=O)OC2 [MYCOPHENOLATE MOFETIL]
[6]; Orthopoxvirus vaccinia, BSC-1
  pEC50: 6.70
[7]; [13]
  pEC50: 7.00

## CC(=O)C1=C2C=CCCN2C(=O)NC1c1ccccc1Br (configuration not stated)
[5]
  pIC50: 6.52

## CCCCCCCCCCOc1ccc(C(=O)NN2C(=O)C3C4C=CC(C5CC45)C3C2=O)cc1 (configuration not stated)
[3]
  IC50: 1.7 µg/mL

## Nc1ccn(C[C@@H](CO)OCP(=O)(O)O)c(=O)n1 [CIDOFOVIR ANHYDROUS]
[1]
  pEC50: 4.35
[5]
  pEC50: 4.34

## CO[C@H]1[C@H](O)[C@H](O[C@H]2CC[C@@]3(C)[C@H](CC[C@@H]4[C@@H]3CC[C@]3(C)[C@@H](C5=CC(=O)OC5)CC[C@]43O)C2)O[C@@H](C)[C@@H]1O [NERIIFOLIN]
[8]
  pEC50: 5.30

## RAUWOLFIA SERPENTINA
[6]; bsc-1
  pEC50: 5.04
[7]; bsc-1
  pEC50: 5.01

## CCOC(=O)c1c(CSc2ccccc2)n(C)c2cc(Br)c(O)c(CN(C)C)c12 [UMIFENOVIR]
[6]; Orthopoxvirus vaccinia, BSC-1
  pEC50: 5.18
[7]; [13]
  pEC50: 5.01

## CO[C@H]1C[C@H](O[C@H]2CC[C@]3(C=O)[C@H]4CC[C@]5(C)[C@@H](C6=CC(=O)OC6)CC[C@]5(O)[C@@H]4CC[C@]3(O)C2)O[C@H](C)[C@H]1O [CYMARIN]
[8]
  pEC50: 6.60

## CC[C@H]1CN2CCc3cc(OC)c(OC)cc3[C@@H]2CC1C[C@H]1NCCc2cc(O)c(OC)cc21 (some centres not stated)
[8]
  pEC50: 6.90

## Oc1ccc(NCc2ccccc2OCc2ccccc2)cc1
[11]
  pEC50: 5.15

## CC1(C)[C@@H]2CC[C@@]1(C)[C@@H](NC(=O)c1ccc(Cl)cc1)C2
[2]
  pIC50: 5.62
[3]
  pIC50: 6.62
[4]
  pIC50: 6.22

## CCCCCCCCCCCCCCCCOCCCOP1(=O)COCC(Cn2ccc(N)nc2=O)O1 (configuration not stated)
[5]
  pEC50: 5.42

## Cc1cc(NN2C(=O)C34C5C=CC6C5C5C3C=CC5C64C2=O)ccc1[N+](=O)[O-]
[9]
  CC50: > 100000 nM
[10]
  pIC50: 5.52

## CC1(C)[C@@H]2CC[C@@]1(C)[C@@H](NC(=O)c1ccc([N+](=O)[O-])cc1)C2
[2]
  pIC50: 5.85
[3]
  pIC50: 7.52
[4]
  pIC50: 6.39

## CCC(=O)N1CC(=O)Nc2ccc(Br)cc2C1c1ccccc1 (configuration not stated)
[12]
  pEC50: 5.52

## N#CC1(c2ccc(NC(=O)c3cccnc3NCc3ccncc3)cc2)CCCC1 [RIVOCERANIB]
[6]; Orthopoxvirus vaccinia, BSC-1
  pEC50: 5.60
[7]; [13]
  pEC50: 5.57

## CC1(C)[C@@H]2CC[C@@]1(C)[C@@H](NC(=O)c1ccc(Br)cc1)C2
[2]
  pIC50: 5.72
[3]
  pIC50: 6.44
[4]
  pIC50: 6.15

## N=c1ccn2c(n1)O[C@H]1[C@H](O)[C@@H](CO)O[C@H]12 [ANCITABINE]
[8]
  pEC50: 5.00

## CC1(C)[C@@H]2CC[C@@]1(C)/C(=N/NC(=O)C1CCC(F)(F)CC1)C2
[2]
  pIC50: 5.08
[3]
  pIC50: 5.74
[4]
  pIC50: 5.11

## CC1(C)[C@@H]2CC[C@@]1(C)[C@H](NC(=O)c1ccc([N+](=O)[O-])cc1)C2
[2]
  pIC50: 4.74
[3]
  pIC50: 6.05
[4]
  pIC50: 5.10

## C#C[C@]1(OC(=O)CCCCCC)CC[C@H]2[C@@H]3CCC4=CC(=O)CC[C@@H]4[C@H]3CC[C@@H]21
[6]; Orthopoxvirus vaccinia, BSC-1
  pEC50: 5.41
[7]; [13]
  pEC50: 5.57
